# Data taken from article PMC9951859, “Investigation of α,ω-Disubstituted Polyamine-Cholic Acid Conjugates Identifies Hyodeoxycholic and Chenodeoxycholic Scaffolds as Non-Toxic, Potent Antimicrobials” (Antibiotics, 2023).
# Several values for one entry are separate records, joined by “and”; a condition that tells them apart may be missing. Equal entries are not always repeated. Entries after “also recorded” stand apart in the source; their conditions may differ. Where two headings read alike, the source gives them in different places.
# Experiments:
# [1] = tested on: Escherichia coli ATCC 25922; assay: Antimicrobial MIC assay (CO-ADD) against E. coli; type: cell-based
# Text: (§1) Antimicrobial evaluation against S. aureus (MRSA) (ATCC 43300), E. coli (ATCC 25922), K. pneumoniae (ATCC 700603), A. baumannii (ATCC 19606), C. albicans (ATCC 90028), and C. neoformans (ATCC 208821) was undertaken at the Community for Open Antimicrobial Drug Discovery at The University of Queensland (Australia) according to their standard protocols as reported previously.
# [2] = tested on: Klebsiella pneumoniae ATCC 700603; assay: Antimicrobial MIC assay (CO-ADD) against K. pneumoniae; type: cell-based
# Text: as §1
# [3] = tested on: Pseudomonas aeruginosa ATCC 27853; assay: Antimicrobial MIC assay (CO-ADD) against P. aeruginosa; type: cell-based
# [4] = tested on: Acinetobacter baumannii ATCC 19606; assay: Antimicrobial MIC assay (CO-ADD) against A. baumannii; type: cell-based
# Text: as §1
# [5] = tested on: Candida albicans ATCC 90028; assay: Antimicrobial MIC assay (CO-ADD) against C. albicans; type: cell-based; conditions: mean (n = 2)
# Text: as §1
# [6] = tested on: Cryptococcus neoformans ATCC 208821; assay: Antimicrobial MIC assay (CO-ADD) against C. neoformans; type: cell-based
# Text: as §1
# [7] = Cytotoxicity assay on HEK293; type: cell-based, human; conditions: human, concentration at 50% cytotoxicity on HEK293, mean (n = 2), top dose tested 32 μg/mL
# Procedure: (§2) Cytotoxicity assays were conducted using the protocols previously reported.
# [8] = tested on: HEK293 human embryonic kidney cells; assay: Cytotoxicity assay on HEK293; type: cell-based; conditions: concentration at 50% cytotoxicity on HEK293; mean (n = 2); top dose tested 32 μg/mL
# Procedure: as §2
# human red blood cells = assay: Hemolytic assay; type: cell-based; conditions: concentration at 10% hemolytic activity on human red blood cells, mean (n = 2), top dose tested 32 μg/mL
# Procedure: Hemolytic assays were conducted using the protocols previously reported.
# erythrocytes = tested on: erythrocytes; design: method as in PMID 11806717; conditions: hemolytic activity; read-out: EC50 for hemoglobin release from erythrocytes; cited from earlier work
# [9] = tested on: B lymphoma Wehi-231 cells; design: method as in PMID 19883637; conditions: read-out: EC50 for propidium iodide entry; cited from earlier work
# [10] = tested on: Staphylococcus aureus ATCC 43300 (MRSA); assay: Antimicrobial MIC assay (CO-ADD) against S. aureus MRSA; type: cell-based; conditions: Staphylococcus aureus, read-out: MIC S.a.
# Text: as §1
# S. aureus ATCC 25923 [11] = assay: Broth microdilution MIC (CA-SFM), S. aureus ATCC 25923; type: cell-based; conditions: Staphylococcus aureus, ATCC25923; classical microdilution, S. aureus ATCC 25923, 18 h at 37 °C
# Procedure: (§3) Additional antimicrobial evaluation against S. aureus (ATCC 25923), S. aureus MRSA (CF-Marseille) and Bacillus cereus (ATCC 11778) was determined in microplates using the standard broth dilution method in accordance with the recommendations of the Comité de l’AntibioGramme de la Société Française de Microbiologie (CA-SFM). Briefly, the minimal inhibitory concentrations (MICs) were determined with an inoculum of 10^5 CFU in 200 µL of MHB containing two-fold serial dilutions of each drug. […] To determine all MICs, the measurements were independently repeated in triplicate.
# [12] = tested on: S. aureus MRSA (CF-Marseille); assay: Broth microdilution MIC (CA-SFM), S. aureus MRSA (CF-Marseille); type: cell-based; conditions: Staphylococcus aureus, 18 h
# Procedure: as §3
# [13] = tested on: Bacillus cereus ATCC 11778; assay: Broth microdilution MIC (CA-SFM), Bacillus cereus; type: cell-based; conditions: ATCC11778; classical microdilution, Bacillus cereus ATCC 11778, 18 h at 37 °C
# Procedure: as §3
# S. aureus ATCC 25923 [14] = assay: Minimum bactericidal concentration test, S. aureus ATCC 25923; type: cell-based, Staphylococcus aureus
# Procedure: (§4) A pure culture of a specified microorganism was grown overnight, then diluted in growth-supporting broth (typically Mueller Hinton II broth) to a concentration between 1 × 10^5 and 1 × 10^6 CFU/mL. A stock dilution of the antimicrobial test compound was made at approximately 100 times the expected, previously determined MIC. Further 1:1 dilution was made in 96 well microtiter plates. All dilutions of the test compound were inoculated with equal volumes of the specified microorganism (typically 100 µL). […] An aliquot of the positive control was plated and used to establish a baseline concentration of the microorganism used. The microtiter plates were then incubated at 37 °C for 24 h. Turbidity indicates growth of the microorganism, and the MIC is the lowest concentration where no growth was visually observed. To determine the minimum bactericidal concentration (MBC), the dilution representing the MIC and at least two of the more concentrated test product dilutions was plated on a solidified agar plate to determine the bacterial viability. The MBC is the lowest concentration where no growth is encountered when compared to the MIC dilution.
# [15] = tested on: S. aureus MRSA (CF-Marseille); assay: Minimum bactericidal concentration test, S. aureus MRSA (CF-Marseille); type: cell-based, Staphylococcus aureus
# Procedure: as §4
# [16] = tested on: Bacillus cereus ATCC 11778; assay: Minimum bactericidal concentration test, Bacillus cereus; type: cell-based
# Procedure: as §4
# S. aureus ATCC 25923 [17] = assay: Real time growth curves, S. aureus ATCC 25923; type: cell-based, Staphylococcus aureus
# Procedure: (§5) Solutions of compound 7e at concentrations of 2, 4 and 16 µg/mL were tested each in triplicate against S. aureus ATCC 25923, S. aureus MRSA (CF-Marseille) and Bacillus cereus ATCC 11778. Typically, in a 96 well plate was placed 10 µL of 40, 80 and 320 µg/mL stock solutions of compound 7e as well as 190 µL of a 5 × 10^5 CFU/mL of the selected bacterial suspension in brain heart infusion (BHI) broth. Positive controls containing only 200 µL of a 5 × 10^5 CFU/mL of bacterial suspension in BHI and negative controls containing only 200 µL of BHI broth were added. The plate was incubated at 37 °C in a TECAN Spark Reader […] and real time bacterial growth was followed with OD590 nm measurements every 10 min during 19 h.
# [18] = tested on: S. aureus MRSA (CF-Marseille); assay: Real time growth curves, S. aureus MRSA (CF-Marseille); type: cell-based, Staphylococcus aureus; conditions: BHI, 1 to 19 h, at 3.2 μM (4 µg/mL) and 12.7 μM (16 µg/mL)
# Procedure: as §5
# [19] = tested on: Bacillus cereus ATCC 11778; assay: Real time growth curves, Bacillus cereus; type: cell-based
# Procedure: as §5
# S. aureus = assay: ATP release bioluminescence assay; type: cell-based, Staphylococcus aureus; conditions: followed over 30 min after exposure, CTAB (1%) positive control
# Procedure: Solutions of the test compound 7e were prepared in DMSO at various concentrations. A suspension of growing S. aureus to be studied in Muller-Hinton II broth was prepared and incubated at 37 °C. An aliquot (90 µL) of this suspension was added to 10 µL of test compound solution and vortexed for 10 s. Luciferin–luciferase reagent (Yelen, France; 50 µL) was immediately added to this mixture, and luminescent signal quantified with an Infinite M200 microplate reader (Tecan) over a 30 min period; ATP concentration was quantified using internal sample addition. A similar procedure was used for the CTAB positive control.
# P. aeruginosa ATCC 27853 = assay: Antibiotic enhancement of doxycycline; type: cell-based, Pseudomonas aeruginosa; conditions: doxycycline at 2 μg/mL
# Procedure: (§6) Restoring enhancer concentrations were determined with an inoculum of 5 × 10^5 CFU in […] of MH broth containing two-fold serial dilutions of each derivative in the presence of either doxycycline or erythromycin at 2 μg/mL. […] These measurements were independently repeated in triplicate.
# E. coli ATCC 25922 = assay: Antibiotic enhancement of erythromycin; type: cell-based, Escherichia coli; conditions: erythromycin at 2 μg/mL
# Procedure: as §6
compound,measurement,setting,value
"CC(C)[C@@H](CC[C@@H](C)[C@H]1CC[C@H]2[C@@H]3[C@H](O)C[C@H]4C[C@@H](NCCCNCCCCN)CC[C@]4(C)[C@H]3CC[C@]12C)OS(=O)(=O)O [Compound 1, Squalamine, reference compound]",MIC,"[1]; ATCC25922, Escherichia coli ATCC 25922, mean (n = 2), read-out: MIC E.c.",≤ 0.28 µM
same,MIC,"[1]; Escherichia coli ATCC 25922, mean (n = 2), read-out: MIC E.c.",≤0.28 µM
same,MIC,"[2]; ATCC700603, Klebsiella pneumoniae ATCC 700603, mean (n = 2), read-out: MIC K.p.",≤ 0.28 µM
same,MIC,"[2]; Klebsiella pneumoniae ATCC 700603, mean (n = 2), read-out: MIC K.p.",≤0.28 µM
same,MIC,"[3]; ATCC27853, Pseudomonas aeruginosa ATCC 27853, mean (n = 2), read-out: MIC P.a.",18 µM
same,MIC,"[4]; ATCC19606, Acinetobacter baumannii ATCC 19606, mean (n = 2), read-out: MIC A.b.",≤ 0.28 µM
same,MIC,"[4]; Acinetobacter baumannii ATCC 19606, mean (n = 2), read-out: MIC A.b.",≤0.28 µM
same,MIC,"[5]; ATCC90028, Candida albicans ATCC 90028, read-out: MIC C.a.",4.5 µM
same,MIC,"[6]; ATCC208821, Cryptococcus neoformans ATCC 208821, mean (n = 2), read-out: MIC C.n.",0.56 µM
same,IC50,[7],> 36 µM
same,Cytotoxicity (IC50),[8],lack of toxicity indicators
same,Hemolysis (HC10),human red blood cells,>36 µM
same,Hemolysis (HC10),human red blood cells; listed as squalamine,lack of toxicity indicators
same,EC50,erythrocytes,80 µM
same,EC50,[9],51 µM
"C[C@H](CCC(=O)NCCCNCCCCCCCCCCNCCCNC(=O)CC[C@@H](C)[C@H]1CC[C@H]2[C@@H]3C[C@H](O)[C@@H]4C[C@H](O)CC[C@]4(C)[C@H]3CC[C@]12C)[C@H]1CC[C@H]2[C@@H]3C[C@H](O)[C@@H]4C[C@H](O)CC[C@]4(C)[C@H]3CC[C@]12C.O=C(O)C(F)(F)F.O=C(O)C(F)(F)F [Compound 7e, N^1,N^10-Bis(3-((R)-4-((3R,5R,6S,8S,9S,10R,13R,14S,17R)-3,6-dihydroxy-10,13-dimethylhexadecahydro-1H-cyclopenta[a]phenanthren-17-yl)pentanamido)propyl)decane-1,10-diaminium 2,2,2-trifluoroacetate]",MIC,[10],≤ 0.2 µM
same,MIC,"[1]; Escherichia coli, ATCC25922, read-out: MIC E.c.",> 25 µM
same,MIC,"[2]; Klebsiella pneumoniae, ATCC700603, read-out: MIC K.p.",> 25 µM
same,MIC,"[3]; Pseudomonas aeruginosa, ATCC27853, read-out: MIC P.a.",> 25 µM
same,MIC,"[4]; Acinetobacter baumannii, ATCC19606, read-out: MIC A.b.",> 25 µM
same,MIC,"[5]; Candida albicans, ATCC90028, read-out: MIC C.a., Candida albicans ATCC 90028",≤ 0.2 µM
same,MIC,"[6]; Cryptococcus neoformans, ATCC208821, read-out: MIC C.n.",0.8 µM
same,IC50,[7]; HEK293 human embryonic kidney cells,> 25 µM
same,Hemolysis (HC10),human red blood cells,>25 µM
same,MIC,S. aureus ATCC 25923 [11],1.6 µM and 2 µg/mL
same,MIC,[12],3.2 µM and 4 µg/mL
same,MIC,[13],3.2 µM and 4 µg/mL
same,MBC/MIC ratio,S. aureus ATCC 25923 [14]; S. aureus ATCC 25923 (one of three Gram-positive strains),approximately one
same,minimum bactericidal concentration (MBC),"S. aureus ATCC 25923 [14]; S. aureus ATCC 25923, stated relative to MIC (1.6 μM, 2 μg/mL)",The same values were observed
same,MBC/MIC ratio,[15]; S. aureus MRSA (CF-Marseille) (one of three Gram-positive strains),approximately one
same,minimum bactericidal concentration (MBC),"[15]; S. aureus MRSA (CF-Marseille), stated relative to MIC (3.2 μM, 4 μg/mL)",The same values were observed
same,MBC/MIC ratio,[16]; Bacillus cereus ATCC 11778 (one of three Gram-positive strains),approximately one
same,minimum bactericidal concentration (MBC),"[16]; Bacillus cereus ATCC 11778, stated relative to MIC (3.2 μM, 4 μg/mL)",The same values were observed
same,time after which growth was exhibited,"S. aureus ATCC 25923 [17]; S. aureus (strain not stated), BHI, lowest tested concentration 1.6 μM (2 µg/mL)",13 h
same,real time growth inhibition (OD 590 nm),"S. aureus ATCC 25923 [17]; S. aureus ATCC 25923, BHI, 1 to 19 h, at 3.2 μM (4 µg/mL) and 12.7 μM (16 µg/mL)",inhibited all three strains
same,real time growth inhibition (OD 590 nm),[18],inhibited all three strains
same,time after which growth was exhibited,"[19]; B. cereus, BHI, lowest tested concentration 1.6 μM (2 µg/mL)",10 h
same,real time growth inhibition (OD 590 nm),"[19]; Bacillus cereus ATCC 11778, BHI, 1 to 19 h, at 3.2 μM (4 µg/mL) and 12.7 μM (16 µg/mL)",inhibited all three strains
same,"ATP release (extracellular ATP, bioluminescence)",S. aureus,inability of 7e to induce ATP release; also recorded: failed to cause ATP release
same,enhancement of antibiotic activity of doxycycline,P. aeruginosa ATCC 27853,No enhancement was observed
same,enhancement of antibiotic activity of erythromycin,E. coli ATCC 25922,No enhancement was observed
